Source: publication PMC9144902, “Metal(II) Complexes of the Fluoroquinolone Fleroxacin: Synthesis, Characterization and Biological Profile” (Pharmaceutics, 2022)
Like-named read-outs stand apart in the source and are kept apart here.

Legend:
[1] = system: Staphylococcus aureus ATCC 6538; assay: Antimicrobial activity, MIC determination; assay type: cell-based
Experimental: (§1) The in vitro antimicrobial activity of the compounds was evaluated by determining the minimum inhibitory concentration (MIC) against the Gram-positive microorganisms Staphylococcus aureus ATCC 6538 (S. aureus) and Bacillus subtilis ATCC 6633 (B. subtilis) and the Gram-negative microorganism Xanthomonas campestris ATCC 1395 (X. campestris). The affinity of the compounds for bovine serum albumin (BSA) and human serum albumin (HSA) was studied by fluorescence emission spectroscopy, and the corresponding binding constants were determined. Furthermore, the interaction of the compounds with calf-thymus DNA (CT DNA) was investigated to determine the possible mode of interaction by the following methods: (i) UV–vis spectroscopy (where the DNA-binding constants of the complexes (Kb) were also determined), (ii) DNA-viscosity measurements, (iii) cyclic voltammetry and (iv) competitive DNA-binding studies with the classic intercalator ethidium bromide (EB) performed by fluorescence emission spectroscopy.
(§2) Three bacterial strains, one Gram(−) (X. campestris) and two Gram(+) (S. aureus and B. subtilis), were used in order to test the antimicrobial activity of the compounds.
(§3) The antimicrobial activity of the compounds was evaluated b y determining their respective MIC values towards one Gram–( –) (Xanthomonas campestris ATCC 1395 (X. campestris)) and two Gram–(+) (Staphylococcus aureus ATCC 6538 (S. aureus) and Bacillus subtilis ATCC 6633 (B. subtilis)) bacterial species. Cultures of these microbial strains were grown on a rich selective agar medium and stored at 4°C. The selective media used were Nutrient Agar or Broth for B. subtilis and S. aureus, and Yeast Mold Agar or Broth for X. campestris . Cells picked from the surface of the stored cultures were used to initiate liquid pre–cultures of the same selective medium at an initial turbidity of roughl y 1 McFarland unit. Pre–cultures were incubated for 24 h in a rotar y sh aking incubator and subsequently the y were used to inoculate the test cultures used for the determination of MIC at an initial turbidity of 0.5 McFarland units. The test cultures consisted of Mueller–Hinton broth (Deben Diagnostics Ltd) containing different concentrations of the compounds. Different concentrations were achieved as follows: the compounds were freshly dissolved in DMSO to a concentration of 1 mg/mL and they were diluted with DMSO, using the method of progressive double dilution. Therefore, working solutions with decreasing concentrations of the compounds under investigation were achieved. The working solutions were subsequently diluted to the final desired concentration b y addition to the growth medium at a proportion of 2:98. MIC values were determined as the lowest concentrations of the tested compounds that inhibited visible growth of each respective organism after a 24–h incubation [ S1]. Bacterial growth was determined b y measuring the turbidit y of appropriatel y diluted cultures at 600 nm with reference to equall y diluted sterile growth medium and the inhibition achieved was calculated b y comparing the turbidit y of each culture to the average of the turbidit y of three non–inhibited cultures. All test cultures were grown in triplicates and for the determination of MIC, growth had to be inhibited in at least two cultures of the triplicate. In cubation temperatur e at all stages was 37°C ex cept for X. campestris t h at was cultivated at 28°C [S2]. […]
(§4) The fluorescence spectra of the compounds were recorded under the same experimental conditions and presented a low–intensity emission band in the region 405–410 nm .

[2] = system: Xanthomonas campestris ATCC 1395; assay: Antimicrobial activity, MIC determination; assay type: cell-based
Experimental: as §1, §2, §3, §4

[3] = system: Bacillus subtilis ATCC 6633; assay: Antimicrobial activity, MIC determination; assay type: cell-based
Experimental: as §1, §2, §3, §4

[4] = molecular target: T1, bovine serum albumin (BSA) (Bos taurus, UniProt P02769); assay: Albumin binding by tryptophan fluorescence emission quenching; conditions: for kq(BSA), BSA-quenching constant: buffer pH 7.0, λexc 295 nm, Stern–Volmer, τ0 = 10^–8 s; for BSA fluorescence, % of the initial fluorescence intensity (I/Io): λem,max = 342 nm, final value of titration (Figure S11)
T1 construct: purchased
Experimental: (§5) Serum albumins (Sas) are the most abundant serum proteins and play a role in the circulatory system, primarily in the transport of drugs and other bioactive small molecules through the bloodstream.
(§6) The SA-quenching constants (kq) for the compounds (Table 5) were calculated with the Stern–Volmer quenching equation (Equations (S2) and (S3)).
(§7) Albumin-binding constants (K) were calculated using the Scatchard equation (Equation (S4)). […]
(§8) S2. Interaction with serum albumins
(§9) The albumin–binding study for the compounds was carried out b y fluorescence emission

[5] = molecular target: T2, human serum albumin (HSA) (Homo sapiens, UniProt P02768); assay: as above; conditions: for kq(HSA), HSA-quenching constant: buffer pH 7.0, λexc 295 nm, Stern–Volmer, τ0 = 10^–8 s; for HSA fluorescence, % of the initial fluorescence intensity (I/Io): λem,max = 351 nm, final value of titration (Figure S10)
T2 construct: purchased
Experimental: as §5, §6, §7, §8, §9

EB–DNA adduct (CT DNA) = assay: Competitive study with EB (EB–DNA fluorescence quenching); assay type: binding, calf; conditions: for Ksv, Stern–Volmer constant: EB–DNA adduct; for ΔI/Io, percentage of EB–DNA fluorescence quenching: [EB] = 20 μM, [DNA] = 26 μM, λexc 540 nm, λem 592 nm; for EB–DNA relative fluorescence emission intensity, % of the initial (I/Io): λemission = 592 nm, final value (up to), Figure S14; for kq, EB–DNA quenching constant: τo = 23 ns
Experimental: Ethidium bromide is a typical marker of intercalation because it can intercalate between adjacent DNA bases with its planar phenanthridine ring.
The fluorescence emission spectra of the EB–DNA adduct ([EB] = 20 μM, [DNA] = 26 μM) in the absence and presence of the compounds were recorded at increasing amounts of the respective compounds. […] As a conclusion, an intercalative interaction of the complexes with CT DNA can be proposed.
The values of the Stern–Volmer constants (Ksv) for the compounds were calculated using the linear Stern–Volmer equation (Equation (S2)) and were of the order of 10^5 M^−1 (Table 8), indicating tight binding of the complexes with DNA [61]. The Ksv values for the complexes are in the range found for a number of metal(II)–quinolone complexes, and complex 12 presents the highest Ksv value (Ksv = 7.25(±0.30) × 10^5 M^−1) among the compounds studied. In addition, the EB–DNA quenching constants (kq) for the compounds were calculated with Equation (S3), assuming τo = 23 ns as the fluorescence lifetime. The values of kq (Table 8) are much higher than the value of 10^10 M^−1s^−1, indicating a static mechanism of EB–DNA fluorescence quenching induced by the compounds, which can result from the formation of a new adduct apparently consisting of each complex and DNA [61].
In order to determine and confirm the DNA–binding mode of the compounds, a competitive study with EB as an intercalating marker is performed b y fluorescence emission spectroscopy.
Therefo re, the E B–displacing abilit y of the compounds from its EB –DN A conjugate was ex amined.
The DNA–EB adduct was prepared b y addition of 20 μM EB and 26 μM CT DNA in buffer solution (150 mM NaCl and 15 mM trisodium citrate at pH 7.0). The potential intercalation of the compounds between the DNA–bases was studied by the addition of a certain amount of the compound solution into the EB–DNA adduct solution. The influence of the compounds on the EB – DNA solution was monitored through the changes of the fluorescence emission spectra at excitation […]
wavelen gth (λex ) at 540 nm [S3]. […]
room temperature in solution or in the presence of DNA, under the same experimental conditions (λex = 540 nm). Bearing t hat in mind, the observed quenching of the EB–DNA solution is evidentl y associated to the displacement of EB from its EB–DNA adduct.
The quenching effici ency (KSV) for each compound was assessed according to the Stern – Volmer equation: Io =1+ k τ [Q] = 1+ K [Q], (eq. S2) [S3] where I0 and I = the fluorescence […]
emission intensities of EB–DNA in the absence and presence of the quencher, respectivel y, [Q] = the concentration of the quencher (i.e. compounds). KSV is obtained from t he Stern–Volmer plots b y the slope of the diagram I0/ I versus [Q]. Taking τ0 = 23 ns as the fluorescence lifetime of the EB– DNA s ystem [S5], the EB –DNA quenching constants (k q) of the compounds can be determined accordin g to eq.S3: K SV = kqτo . […]
[S2] Irgi, E.P.; Geromichalos, G.D.; Balala, S.; Kljun, J.; Kalogiannis, S.; Papadopoulos, A.; Turel, I.; Psomas, G. Cobalt(II) complexes with quinolone antimicrobial drug oxolinic acid: […]
[ S 5] Heller, D.P.; Greenstock, C.L. Fluorescence lifetime analysis of DNA intercalated ethidium bromide and quenching by free d ye. Biophys. Chem . 1994, 50, 305–312.

[6] = S. aureus, 24-h incubation, 37°C
[7] = X. campestris, 24-h incubation, 28°C
[8] = B. subtilis, 24-h incubation, 37°C

T1 sequence (P02769 25-607): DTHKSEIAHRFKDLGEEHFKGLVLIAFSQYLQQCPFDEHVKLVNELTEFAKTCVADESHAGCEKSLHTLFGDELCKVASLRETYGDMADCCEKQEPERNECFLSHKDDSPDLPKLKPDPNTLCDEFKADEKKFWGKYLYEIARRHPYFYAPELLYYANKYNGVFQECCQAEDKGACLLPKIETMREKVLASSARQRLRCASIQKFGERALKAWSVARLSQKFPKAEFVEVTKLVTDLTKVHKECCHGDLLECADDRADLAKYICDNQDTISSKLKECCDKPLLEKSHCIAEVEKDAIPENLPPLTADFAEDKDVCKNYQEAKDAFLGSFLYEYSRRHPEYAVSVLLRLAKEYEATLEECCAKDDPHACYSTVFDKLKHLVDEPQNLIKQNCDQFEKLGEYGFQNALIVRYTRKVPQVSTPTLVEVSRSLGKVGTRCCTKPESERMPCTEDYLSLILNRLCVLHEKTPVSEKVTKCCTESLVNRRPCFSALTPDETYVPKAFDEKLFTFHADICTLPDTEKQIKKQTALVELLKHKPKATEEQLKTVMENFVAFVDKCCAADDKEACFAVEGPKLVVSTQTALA
T2 sequence (P02768 25-609): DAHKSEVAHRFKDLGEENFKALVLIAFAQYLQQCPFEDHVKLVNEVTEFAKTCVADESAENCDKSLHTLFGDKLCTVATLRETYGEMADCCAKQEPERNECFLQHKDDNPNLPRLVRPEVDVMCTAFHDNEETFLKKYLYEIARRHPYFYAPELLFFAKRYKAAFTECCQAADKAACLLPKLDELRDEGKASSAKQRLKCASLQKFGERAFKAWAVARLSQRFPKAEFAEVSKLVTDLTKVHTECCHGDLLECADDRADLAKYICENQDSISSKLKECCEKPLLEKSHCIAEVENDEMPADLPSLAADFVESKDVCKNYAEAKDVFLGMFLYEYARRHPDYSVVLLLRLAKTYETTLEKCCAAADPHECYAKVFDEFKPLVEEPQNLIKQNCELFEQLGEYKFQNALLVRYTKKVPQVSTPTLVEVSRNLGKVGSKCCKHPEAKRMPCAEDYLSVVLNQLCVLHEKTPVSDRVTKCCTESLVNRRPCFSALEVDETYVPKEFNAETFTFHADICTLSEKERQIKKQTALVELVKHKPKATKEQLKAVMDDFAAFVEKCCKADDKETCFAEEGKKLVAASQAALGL

SMILES | kq(BSA), BSA-quenching constant ([4]; BSA 3 μM) | BSA fluorescence, % of the initial fluorescence intensity (I/Io) [4] [%] | kq(HSA), HSA-quenching constant ([5]; HSA 3 μM) | HSA fluorescence, % of the initial fluorescence intensity (I/Io) [5] [%] | Ksv, Stern–Volmer constant (EB–DNA adduct (CT DNA)) | ΔI/Io, percentage of EB–DNA fluorescence quenching (EB–DNA adduct (CT DNA)) [%] | EB–DNA relative fluorescence emission intensity, % of the initial (I/Io) (EB–DNA adduct (CT DNA)) [%] | kq, EB–DNA quenching constant (EB–DNA adduct (CT DNA)) | further results
CN1CCN(c2c(F)cc3c(=O)c(C(=O)O)cn(CCF)c3c2F)CC1 [Fleroxacin, 6,8-difluoro-1-(2–fluoroethyl)-7-(4-methylpiperazin-1-yl)-4-oxoquinoline-3-carboxylic acid] | 6.19(±0.23) × 10^12 M^−1s^−1 | 47.5 | 2.69(±0.11) × 10^12 M^−1s^−1 | 66.5 | 4.64(±0.14) × 10^5 M^–1 | 65.8 | 34.2 | 2.02(±0.06) × 10^13 M^−1s^−1 | MIC ([1]; Staphylococcus aureus, ATCC6538, 24 h): 4 µg/mL; MIC ([1]; Staphylococcus aureus, ATCC6538, 24 h, read-out: MIC (values in parentheses)): 10.8 µM; MIC ([2]; Xanthomonas campestris, ATCC1395, 24 h): 8 µg/mL; MIC ([2]; Xanthomonas campestris, ATCC1395, 24 h, read-out: MIC (values in parentheses)): 21.7 µM; MIC ([3]; Bacillus subtilis, ATCC6633, 24 h): 4 µg/mL; MIC ([3]; Bacillus subtilis, ATCC6633, 24 h, read-out: MIC (values in parentheses)): 10.8 µM; Kd [4]: 30.5 µM; Kd [5]: 15.2 µM
CN1CCN(c2c(F)cc3c(=O)c(C(=O)[O-])cn(CCF)c3c2F)CC1.CN1CCN(c2c(F)cc3c(=O)c(C(=O)[O-])cn(CCF)c3c2F)CC1.CO.CO.[Zn+2] [complex 3, [Zn(flrx)2(MeOH)2]] | 4.55(±0.21) × 10^13 M^−1s^−1 | 10.8 | 2.26(±0.10) × 10^13 M^−1s^−1 | 19.8 | 6.07(±0.17) × 10^5 M^–1 | 85.9 | 14.1 | 2.64(±0.07) × 10^13 M^−1s^−1 | MIC [1, 6]: 8 µg/mL; MIC (values in parentheses) [1, 6]: 9.2 µM; MIC [2, 7]: 32 µg/mL; MIC (values in parentheses) [2, 7]: 36.8 µM; MIC [3, 8]: 8 µg/mL; MIC (values in parentheses) [3, 8]: 9.2 µM; K(BSA), BSA-binding constant ([4]; BSA 3 μM, buffer pH 7.0, Scatchard equation): 1.86(±0.08) × 10^5 M^−1; K(HSA), HSA-binding constant ([5]; HSA 3 μM, buffer pH 7.0, Scatchard equation): 6.15(±0.25) × 10^4 M^−1
